# Active and inactive are the calls of the source. The calls are words filed in the database; no cut-off is given here.
# Experiments:
# Staphylococcus aureus [1] = test: Bactericidal activity against Staphylococcus aureus ATCC 29213 assessed as inhibition of bacterial growth at 4 times MIC incubated upto 8 hrs by time-kill assay; type: functional, organism-based
# [2] = Toxicity in KM mouse assessed as change in MCV level at 20 mg/kg, sc measured after 24 hrs; type: organism-based; conditions: in vivo
# [3] = Toxicity in KM mouse assessed as change in WBC count at 20 mg/kg, sc measured after 24 hrs; type: organism-based; conditions: in vivo
# [4] = Toxicity in KM mouse assessed as degeneration in cardiac muscle fibers at 20 mg/kg, sc measured after 24 hrs by H and E staining based analysis; type: organism-based; conditions: in vivo
# [5] = Toxicity in KM mouse assessed as necrosis in cardiac muscle fibers at 20 mg/kg, sc measured after 24 hrs by H and E staining based analysis; type: organism-based; conditions: in vivo
# Staphylococcus aureus [6] = test: Antibacterial activity against methicillin-resistant Staphylococcus aureus clinical isolate M12 infected in KM mouse assessed as reduction in IL-6 level at infection site at 10 mg/kg, sc measured after 24 hrs by ELISA; type: functional
# Staphylococcus aureus [7] = test: Antibacterial activity against methicillin-resistant Staphylococcus aureus clinical isolate M12 infected in sepsis BALB/c mouse model assessed as decrease in bacterial load in liver at 12 mg/kg, ip administered consecutively at 12 hr-interval for 24 hrs measured after 24 hrs post-last dose; type: functional; conditions: time 48 hrs
# Staphylococcus aureus [8] = test: Antibacterial activity against methicillin-resistant Staphylococcus aureus clinical isolate M12 by CLSI based micro-broth dilution method; type: functional
# [9] = Toxicity in BALB/c mouse assessed as smooth hair at <15 mg/kg, ip bid for 7 days; type: organism-based; conditions: in vivo, 168 h, time 7 day
# Staphylococcus aureus [10] = test: (§1) Antibacterial activity against methicillin-resistant Staphylococcus aureus clinical isolate M12 infected in sepsis BALB/c mouse model assessed as decrease in degeneration of renal tubular epithelial cells at 6 to 12 mg/kg, ip administered consecutively at 12 hr-interval for 24 hrs measured after 24 hrs post-last dose by H and E staining based analysis; type: functional, organism-based; conditions: dose 6-12 mg/kg, time 48.0 hrs
# Staphylococcus aureus [11] = test: Induction of resistance development in Staphylococcus aureus ATCC 29213 at 0.5 times MIC treated for 20 days of consecutive passages; type: functional, organism-based; conditions: time 20.0 day
# Staphylococcus aureus [12] = test: Disruption of cell membrane in methicillin-resistant Staphylococcus aureus clinical isolate M12 assessed as increase in protein leakage incubated for 4 hrs by BCA assay; type: functional, organism-based; conditions: dose <= 16.0 µg/ml
# [13] = Toxicity in KM mouse assessed as change in albumin level at 20 mg/kg, sc measured after 24 hrs; type: organism-based; conditions: in vivo
# Staphylococcus aureus [14] = test: Antibacterial activity against methicillin-resistant Staphylococcus aureus clinical isolate M17 by CLSI based micro-broth dilution method; type: functional
# [15] = Toxicity in KM mouse assessed as mental abnormality at 5 to 80 mg/kg, sc; type: organism-based; conditions: in vivo, dose 5-80 mg/kg
# [16] = Toxicity in KM mouse assessed as edema in lung epithelial cells at 20 mg/kg, sc measured after 24 hrs by H and E staining based analysis; type: organism-based; conditions: in vivo
# Staphylococcus aureus [17] = test: Antibacterial activity against methicillin-resistant Staphylococcus aureus clinical isolate M21 by CLSI based micro-broth dilution method; type: functional
# [18] = Toxicity in KM mouse assessed as degeneration of hepatocytes at 20 mg/kg, sc measured after 24 hrs by H and E staining based analysis; type: organism-based; conditions: in vivo
# Staphylococcus aureus [19] = test: as §1, with “pathological change in white medulla” for “degeneration”, “spleen” for “renal tubular epithelial cells”, “6” for “6 to 12”; type: functional, organism-based; conditions: time 48.0 hrs
# Staphylococcus aureus [20] = test: Antibacterial activity against methicillin-resistant Staphylococcus aureus clinical isolate M16 by CLSI based micro-broth dilution method; type: functional
# Staphylococcus aureus [21] = test: Antibacterial activity against methicillin-resistant Staphylococcus aureus clinical isolate M12 infected in KM mouse assessed as decrease in erythematous pustules at infected skin on back of animal at 5 mg/kg, sc measured after 24 hrs; type: functional, organism-based
# [22] = Toxicity in BALB/c mouse assessed as edema in hepatocytes at 15 mg/kg, ip bid for 7 days; type: organism-based; conditions: in vivo, 168 h, time 7 day
# Staphylococcus aureus [23] = test: Antibacterial activity against methicillin-resistant Staphylococcus aureus clinical isolate M12 infected in KM mouse assessed as decrease in bacterial survival rate at 10 mg/kg, sc measured after 24 hrs by drop-plate counting method relative to control; type: functional
# [24] = Toxicity in KM mouse infected with methicillin-resistant Staphylococcus aureus clinical isolate M12 assessed as histopathological abnormality in heart at 5 to 10 mg/kg, sc measured after 24 hrs by H and E staining based analysis; type: organism-based; conditions: in vivo, dose 5-10 mg/kg
# [25] = Toxicity in KM mouse assessed as change in RBC count at 20 mg/kg, sc measured after 24 hrs; type: organism-based; conditions: in vivo
# [26] = Toxicity in KM mouse assessed as intact structure in skin layers at 20 mg/kg, sc measured after 24 hrs by H and E staining based analysis; type: organism-based; conditions: in vivo
# Staphylococcus aureus [27] = test: Antibacterial activity against methicillin-resistant Staphylococcus aureus clinical isolate M12 infected in sepsis BALB/c mouse model assessed as decrease in bacterial load in kidney at 12 mg/kg, ip administered consecutively at 12 hr-interval for 24 hrs measured after 24 hrs post-last dose; type: functional; conditions: time 48 hrs
# [28] = Toxicity in BALB/c mouse assessed as change in blood biochemistry index at 15 mg/kg, ip bid for 7 days; type: organism-based; conditions: in vivo, 168 h, time 7 day
# [29] = Toxicity in BALB/c mouse assessed as necrosis in hepatocytes at 15 mg/kg, ip bid for 7 days; type: organism-based; conditions: in vivo, 168 h, time 7 day
# Staphylococcus aureus [30] = test: Antibacterial activity against methicillin-resistant Staphylococcus aureus clinical isolate M12 incubated for 16 to 18 hrs in presence of phosphatidylethanolamine; type: functional; conditions: time 16-18 hrs
# [31] = Toxicity in BALB/c mouse assessed as degeneration of renal tubular epithelial cells at 15 mg/kg, ip bid for 7 days; type: organism-based; conditions: in vivo, 168 h, time 7 day
# [32] = Toxicity in KM mouse assessed as formation of small erythema at administration site at >40 mg/kg, sc; type: organism-based; conditions: in vivo
# Staphylococcus aureus [33] = test: Antibacterial activity against methicillin-resistant Staphylococcus aureus clinical isolate M12 incubated for 16 to 18 hrs in presence of phosphatidylglycerol; type: functional; conditions: time 16-18 hrs
# Staphylococcus aureus [34] = test: Antibacterial activity against methicillin-resistant Staphylococcus aureus clinical isolate M12 infected in KM mouse assessed as decrease in pus formation in subcutaneous area at 10 mg/kg, sc measured after 24 hrs; type: functional, organism-based
# [35] = Toxicity in KM mouse assessed as necrosis in lung epithelial cells at 20 mg/kg, sc measured after 24 hrs by H and E staining based analysis; type: organism-based; conditions: in vivo
# Staphylococcus aureus [36] = test: Antibacterial activity against methicillin-resistant Staphylococcus aureus clinical isolate M14 by CLSI based micro-broth dilution method; type: functional
# Staphylococcus aureus [37] = test: Induction of cell membrane damage in methicillin-resistant Staphylococcus aureus clinical isolate M12 assessed as increase in red fluorescence at 8 times MIC incubated for 4 hrs by DAPI/PI staining based analysis; type: functional, organism-based
# [38] = Toxicity in KM mouse assessed as inflammatory cells in skin section at 20 mg/kg, sc measured after 24 hrs by H and E staining based analysis; type: organism-based; conditions: in vivo
# [39] = Toxicity in KM mouse infected with methicillin-resistant Staphylococcus aureus clinical isolate M12 assessed as histopathological abnormality in lung at 5 to 10 mg/kg, sc measured after 24 hrs by H and E staining based analysis; type: organism-based; conditions: in vivo, dose 5-10 mg/kg
# Staphylococcus aureus [40] = test: Antibacterial activity against methicillin-resistant Staphylococcus aureus clinical isolate M12 incubated for 16 to 18 hrs in presence of peptidoglycan; type: functional; conditions: time 16-18 hrs
smiles,measurement,setting,value
C=CCc1cc(-c2ccc(OCCC[N+](C)(C)CC(=O)NCCCC)c(CC=C)c2)c2oc(=S)n(Cc3ccc(F)cc3)c2c1.[Br-],Activity,Staphylococcus aureus [1],Active
same,Activity,[2],Non-Toxic
same,Activity,[3],Non-Toxic
same,Activity,[4],Non-Toxic
same,Activity,[5],Non-Toxic
same,Activity,Staphylococcus aureus [6],66.7 pg/mL
same,Activity,Staphylococcus aureus [7],1.62 log10CFU/g
same,MIC,Staphylococcus aureus [8],2 µg/mL
same,Activity,[9],Non-Toxic
same,Activity,Staphylococcus aureus [10],Active
same,Activity,Staphylococcus aureus [11],inactive
same,Activity,Staphylococcus aureus [12],Dose-Dependent Effect
same,Activity,[13],Non-Toxic
same,MIC,Staphylococcus aureus [14],4 µg/mL
same,Activity,[15],Non-Toxic
same,Activity,[16],Non-Toxic
same,MIC,Staphylococcus aureus [17],2 µg/mL
same,Activity,[18],Non-Toxic
same,Activity,Staphylococcus aureus [19],inactive
same,MIC,Staphylococcus aureus [20],2 µg/mL
same,Activity,Staphylococcus aureus [21],inactive
same,Activity,[22],Non-Toxic
same,Activity,Staphylococcus aureus [23],99.67%
same,Activity,[24],Non-Toxic
same,Activity,[25],Non-Toxic
same,Activity,[26],Non-Toxic
same,Activity,Staphylococcus aureus [27],1.45 log10CFU/g
same,Activity,[28],Non-Toxic
same,Activity,[29],Non-Toxic
same,MIC,Staphylococcus aureus [30],2 µg/mL
same,Activity,[31],Non-Toxic
same,Activity,[32],Toxic
same,MIC,Staphylococcus aureus [33],128 µg/mL
same,Activity,Staphylococcus aureus [34],Active
same,Activity,[35],Non-Toxic
same,MIC,Staphylococcus aureus [36],2 µg/mL
same,Activity,Staphylococcus aureus [37],Active
same,Activity,[38],Non-Toxic
same,Activity,[39],Non-Toxic
same,MIC,Staphylococcus aureus [40],2 µg/mL

# From ChEMBL document CHEMBL6127052, “Discovery of membrane-targeting amphiphilic honokiol derivatives containing an oxazolethione moiety to combat methicillin-resistant Staphylococcus aureus (MRSA) infections” (Eur J Med Chem, 2024)
